According to paper PMC7714403 (JCI Insight, 2020):
pKd: −log10 of the molar value.

How the values were obtained:
[1] = target: CHK1 (Homo sapiens, UniProt O14757); experiment: KiNativ, OCI cells live cell; type: cell-based; conditions: labeling site Lys2, peptide DIKPENLLLDER
[2] = test system: 40 kinases; conditions: 200 nM; 11 of 40 kinases; cited from earlier work
[3] = target: T1, MAP2K3 (Homo sapiens, UniProt P46734); experiment: KiNativ, OCI cells live cell; type: cell-based; conditions: 2 h
T1 sequence (P46734 1-347): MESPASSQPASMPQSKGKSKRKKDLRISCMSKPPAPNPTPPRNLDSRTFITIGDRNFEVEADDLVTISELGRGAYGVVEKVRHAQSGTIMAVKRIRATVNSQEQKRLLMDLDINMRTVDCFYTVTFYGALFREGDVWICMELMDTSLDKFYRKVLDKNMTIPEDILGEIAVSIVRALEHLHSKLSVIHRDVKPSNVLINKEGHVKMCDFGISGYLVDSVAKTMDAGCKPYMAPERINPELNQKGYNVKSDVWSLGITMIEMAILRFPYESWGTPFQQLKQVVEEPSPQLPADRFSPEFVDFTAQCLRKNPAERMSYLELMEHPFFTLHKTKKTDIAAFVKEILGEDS

[4] = target: CHED (Homo sapiens, UniProt Q14004); experiment: KiNativ, OCI cells live cell; type: cell-based; conditions: labeling site Lys2, peptide DIKCSNILLNNR
[5] = target: SLK (Homo sapiens, UniProt Q9H2G2); experiment: KiNativ, OCI cells live cell; type: cell-based; conditions: 2 h, labeling site Lys2, peptide […]
[6] = test system: PCTAIRE2, PCTAIRE3; experiment: KiNativ, OCI cells live cell; type: cell-based, human; conditions: labeling site Lys1, peptide SKLTENLVALKEIR
[7] = target: NEK7 (Homo sapiens, UniProt Q8TDX7); experiment: KiNativ, OCI cells live cell; type: cell-based; conditions: 2 h, labeling site Lys1, peptide […]
Chain of NEK7 (Q8TDX7 whole entry): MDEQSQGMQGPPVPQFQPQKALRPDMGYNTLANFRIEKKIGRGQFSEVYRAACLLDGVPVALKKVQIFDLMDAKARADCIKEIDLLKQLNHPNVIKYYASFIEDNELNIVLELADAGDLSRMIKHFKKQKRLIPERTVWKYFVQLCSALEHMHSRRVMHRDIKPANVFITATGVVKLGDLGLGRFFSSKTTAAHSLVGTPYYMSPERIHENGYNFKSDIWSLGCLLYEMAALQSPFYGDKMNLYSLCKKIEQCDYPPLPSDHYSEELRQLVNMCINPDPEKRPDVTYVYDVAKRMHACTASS

[8] = target: CaMK1a (Homo sapiens, UniProt Q14012); experiment: KiNativ, OCI cells live cell; type: cell-based; conditions: 2 h
Chain of CaMK1a (Q14012 whole entry): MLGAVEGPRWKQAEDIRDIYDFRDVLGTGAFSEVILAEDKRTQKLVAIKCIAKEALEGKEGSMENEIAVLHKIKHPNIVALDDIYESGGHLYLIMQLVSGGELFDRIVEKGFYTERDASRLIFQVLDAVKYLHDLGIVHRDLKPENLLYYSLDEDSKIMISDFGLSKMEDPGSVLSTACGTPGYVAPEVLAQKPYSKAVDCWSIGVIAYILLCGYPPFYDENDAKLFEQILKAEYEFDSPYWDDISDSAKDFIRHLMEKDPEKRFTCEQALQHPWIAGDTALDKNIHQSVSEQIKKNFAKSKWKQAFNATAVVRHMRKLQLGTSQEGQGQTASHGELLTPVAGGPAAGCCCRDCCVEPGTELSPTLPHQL

[9] = test system: MAST1, MAST2; experiment: KiNativ, OCI cells live cell; type: cell-based, human; conditions: labeling site Lys2, peptide DLKPDNLLITSMGHIK
[10] = target: CDK7 (Homo sapiens, UniProt P50613); experiment: KdELECT binding assay; design: purchased Eurofins DiscoverX
[11] = target: NLK (Homo sapiens, UniProt Q9UBE8); experiment: KiNativ, OCI cells live cell; type: cell-based; conditions: 2 h, labeling site Lys2, peptide […]
Chain of NLK (Q9UBE8 whole entry): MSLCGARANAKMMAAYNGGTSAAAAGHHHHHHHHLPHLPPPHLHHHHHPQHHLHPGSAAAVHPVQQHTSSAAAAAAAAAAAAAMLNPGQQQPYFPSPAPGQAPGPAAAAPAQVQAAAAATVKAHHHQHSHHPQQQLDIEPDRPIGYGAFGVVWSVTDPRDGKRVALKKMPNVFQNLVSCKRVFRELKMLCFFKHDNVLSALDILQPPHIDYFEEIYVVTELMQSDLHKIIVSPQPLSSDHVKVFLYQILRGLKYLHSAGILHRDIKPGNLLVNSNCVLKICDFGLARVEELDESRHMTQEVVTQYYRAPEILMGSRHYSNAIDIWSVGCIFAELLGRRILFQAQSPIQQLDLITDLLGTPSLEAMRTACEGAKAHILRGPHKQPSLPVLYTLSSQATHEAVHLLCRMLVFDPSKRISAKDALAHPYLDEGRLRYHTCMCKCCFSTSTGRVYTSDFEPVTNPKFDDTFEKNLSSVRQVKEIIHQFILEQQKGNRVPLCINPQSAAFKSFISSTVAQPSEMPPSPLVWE

[12] = test system: p38d, p38g; experiment: KiNativ, OCI cells live cell; type: cell-based, human; conditions: labeling site Lys2, peptide DLKPGNLAVNEDCELK
[13] = target: MAP2K7 (Homo sapiens, UniProt O14733); experiment: KiNativ, OCI cells live cell; type: cell-based; conditions: labeling site Lys2, peptide DVKPSNILLDER
[14] = target: eEF2K (Homo sapiens, UniProt O00418); experiment: KiNativ, OCI cells live cell; type: cell-based; conditions: 2 h, labeling site ATP, peptide […]
Chain of eEF2K (O00418 whole entry): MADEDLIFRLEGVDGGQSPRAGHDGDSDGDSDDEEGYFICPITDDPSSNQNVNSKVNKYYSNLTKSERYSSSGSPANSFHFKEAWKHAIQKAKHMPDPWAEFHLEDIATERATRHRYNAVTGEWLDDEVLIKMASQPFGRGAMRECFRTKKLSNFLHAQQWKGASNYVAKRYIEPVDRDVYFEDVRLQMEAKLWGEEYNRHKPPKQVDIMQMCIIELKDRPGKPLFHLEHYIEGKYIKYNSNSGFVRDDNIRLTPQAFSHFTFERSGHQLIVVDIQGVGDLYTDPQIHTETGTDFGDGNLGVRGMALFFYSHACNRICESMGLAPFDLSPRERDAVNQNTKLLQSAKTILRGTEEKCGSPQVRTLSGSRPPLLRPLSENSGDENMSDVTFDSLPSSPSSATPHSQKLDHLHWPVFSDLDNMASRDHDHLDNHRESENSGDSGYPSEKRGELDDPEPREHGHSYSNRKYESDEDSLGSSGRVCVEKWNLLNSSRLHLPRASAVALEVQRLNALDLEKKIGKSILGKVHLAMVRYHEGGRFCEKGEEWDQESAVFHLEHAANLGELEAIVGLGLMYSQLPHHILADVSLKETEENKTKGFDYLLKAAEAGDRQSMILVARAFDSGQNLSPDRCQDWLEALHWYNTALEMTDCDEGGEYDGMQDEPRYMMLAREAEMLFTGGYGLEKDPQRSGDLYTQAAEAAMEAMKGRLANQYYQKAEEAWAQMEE

[15] = target: MAP2K1 (Homo sapiens, UniProt Q02750); experiment: KiNativ, OCI cells live cell; type: cell-based; conditions: 2 h, labeling site Lys2, peptide […]
[16] = target: NEK1 (Homo sapiens, UniProt Q96PY6); experiment: KiNativ, OCI cells live cell; type: cell-based; conditions: 2 h, labeling site Lys2, peptide […]
[17] = test system: cord blood CD34+ cells; experiment: CFU assay, normal cells; type: cell-based, human; conditions: 2 donors
Procedure: For human primary CFU assays, cells were cultured in MethoCult H4035 Optimum without EPO (Stemcell Technologies). For mouse primary CFU assays, cells were directly cultured in MethoCult M3231 (Stemcell Technologies) supplemented with 45 ng/mL of murine IL-6 (mIL-6), mIL-3, and mSCF. Both human and mouse primary cells 10,000 cells were plated in duplicate for each drug concentration. For cell line CFU assays, MV4-11 cells were treated with drugs in the presence of 20 ng/mL IL-3, GM-CSF, or FGF2. Cells were plated in MethoCult H4230 (Stemcell Technologies) in duplicates at 250 cells/plate. Plates were placed in a 37°C incubator for 7 or 14 days for human cell lines and for mouse or human primary cells, respectively. Colonies were identified as clusters containing 40 or more cells. For CFU assays using human primary CD34^+ cells, umbilical cord blood was obtained from the OSU Comprehensive Cancer Center (CCC) Leukemia Tissue Bank Shared Resource, and mononuclear cells were isolated by using density gradient centrifugation. CD34^+ cells were purified using the CD34 UltraPure MicroBead Kit (Miltenyi Biotec) according to the manufacturer’s instructions. CFU assay with CD34^+ cells was performed as described above, and the total number of colonies were counted after 7–10 days.

[18] = target: DNAPK (Homo sapiens, UniProt P78527); experiment: KiNativ, OCI cells live cell; type: cell-based; conditions: 2 h, labeling site ATP
[19] = target: FMS (Homo sapiens, UniProt P07333); experiment: KiNativ, OCI cells live cell; type: cell-based; conditions: 2 h, labeling site ATP Loop, peptide […]
Chain of FMS (P07333 20-972): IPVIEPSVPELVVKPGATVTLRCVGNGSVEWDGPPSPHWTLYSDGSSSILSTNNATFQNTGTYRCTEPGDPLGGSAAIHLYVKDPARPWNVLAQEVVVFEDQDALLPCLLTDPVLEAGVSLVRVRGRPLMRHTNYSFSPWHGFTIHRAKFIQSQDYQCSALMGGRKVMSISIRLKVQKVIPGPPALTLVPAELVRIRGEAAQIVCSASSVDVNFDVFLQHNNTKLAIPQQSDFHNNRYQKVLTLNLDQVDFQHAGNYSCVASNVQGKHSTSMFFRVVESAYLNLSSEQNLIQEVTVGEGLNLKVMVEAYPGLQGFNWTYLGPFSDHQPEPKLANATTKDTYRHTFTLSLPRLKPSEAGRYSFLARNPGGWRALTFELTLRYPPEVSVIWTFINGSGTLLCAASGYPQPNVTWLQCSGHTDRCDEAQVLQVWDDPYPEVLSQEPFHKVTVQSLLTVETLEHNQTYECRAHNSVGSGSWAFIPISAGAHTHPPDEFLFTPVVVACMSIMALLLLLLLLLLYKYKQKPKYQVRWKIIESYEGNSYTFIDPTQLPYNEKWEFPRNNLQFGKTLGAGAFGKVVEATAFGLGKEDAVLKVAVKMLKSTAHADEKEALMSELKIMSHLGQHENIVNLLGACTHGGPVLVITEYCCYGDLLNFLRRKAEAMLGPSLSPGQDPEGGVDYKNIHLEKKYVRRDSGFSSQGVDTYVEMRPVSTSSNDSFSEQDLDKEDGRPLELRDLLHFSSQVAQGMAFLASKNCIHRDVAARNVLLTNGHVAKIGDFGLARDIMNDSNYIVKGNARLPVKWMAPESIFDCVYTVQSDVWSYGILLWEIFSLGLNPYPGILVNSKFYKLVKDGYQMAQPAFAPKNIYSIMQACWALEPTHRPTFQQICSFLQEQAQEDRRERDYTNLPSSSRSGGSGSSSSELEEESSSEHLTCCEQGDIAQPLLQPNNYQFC

[20] = target: ROCK1 (Homo sapiens, UniProt Q13464); experiment: KiNativ, OCI cells live cell; type: cell-based; conditions: 2 h, labeling site Other, peptide […]
[21] = target: CASK (Homo sapiens, UniProt O14936); experiment: KiNativ, OCI cells live cell; type: cell-based; conditions: 2 h, labeling site Lys1, peptide […]
[22] = target: MAST3 (Homo sapiens, UniProt O60307); experiment: KiNativ, OCI cells live cell; type: cell-based; conditions: 2 h, labeling site Lys2, peptide […]
[23] = target: MAP3K4 (Homo sapiens, UniProt Q9Y6R4); experiment: KiNativ, OCI cells live cell; type: cell-based; conditions: 2 h
Chain of MAP3K4 (Q9Y6R4 whole entry): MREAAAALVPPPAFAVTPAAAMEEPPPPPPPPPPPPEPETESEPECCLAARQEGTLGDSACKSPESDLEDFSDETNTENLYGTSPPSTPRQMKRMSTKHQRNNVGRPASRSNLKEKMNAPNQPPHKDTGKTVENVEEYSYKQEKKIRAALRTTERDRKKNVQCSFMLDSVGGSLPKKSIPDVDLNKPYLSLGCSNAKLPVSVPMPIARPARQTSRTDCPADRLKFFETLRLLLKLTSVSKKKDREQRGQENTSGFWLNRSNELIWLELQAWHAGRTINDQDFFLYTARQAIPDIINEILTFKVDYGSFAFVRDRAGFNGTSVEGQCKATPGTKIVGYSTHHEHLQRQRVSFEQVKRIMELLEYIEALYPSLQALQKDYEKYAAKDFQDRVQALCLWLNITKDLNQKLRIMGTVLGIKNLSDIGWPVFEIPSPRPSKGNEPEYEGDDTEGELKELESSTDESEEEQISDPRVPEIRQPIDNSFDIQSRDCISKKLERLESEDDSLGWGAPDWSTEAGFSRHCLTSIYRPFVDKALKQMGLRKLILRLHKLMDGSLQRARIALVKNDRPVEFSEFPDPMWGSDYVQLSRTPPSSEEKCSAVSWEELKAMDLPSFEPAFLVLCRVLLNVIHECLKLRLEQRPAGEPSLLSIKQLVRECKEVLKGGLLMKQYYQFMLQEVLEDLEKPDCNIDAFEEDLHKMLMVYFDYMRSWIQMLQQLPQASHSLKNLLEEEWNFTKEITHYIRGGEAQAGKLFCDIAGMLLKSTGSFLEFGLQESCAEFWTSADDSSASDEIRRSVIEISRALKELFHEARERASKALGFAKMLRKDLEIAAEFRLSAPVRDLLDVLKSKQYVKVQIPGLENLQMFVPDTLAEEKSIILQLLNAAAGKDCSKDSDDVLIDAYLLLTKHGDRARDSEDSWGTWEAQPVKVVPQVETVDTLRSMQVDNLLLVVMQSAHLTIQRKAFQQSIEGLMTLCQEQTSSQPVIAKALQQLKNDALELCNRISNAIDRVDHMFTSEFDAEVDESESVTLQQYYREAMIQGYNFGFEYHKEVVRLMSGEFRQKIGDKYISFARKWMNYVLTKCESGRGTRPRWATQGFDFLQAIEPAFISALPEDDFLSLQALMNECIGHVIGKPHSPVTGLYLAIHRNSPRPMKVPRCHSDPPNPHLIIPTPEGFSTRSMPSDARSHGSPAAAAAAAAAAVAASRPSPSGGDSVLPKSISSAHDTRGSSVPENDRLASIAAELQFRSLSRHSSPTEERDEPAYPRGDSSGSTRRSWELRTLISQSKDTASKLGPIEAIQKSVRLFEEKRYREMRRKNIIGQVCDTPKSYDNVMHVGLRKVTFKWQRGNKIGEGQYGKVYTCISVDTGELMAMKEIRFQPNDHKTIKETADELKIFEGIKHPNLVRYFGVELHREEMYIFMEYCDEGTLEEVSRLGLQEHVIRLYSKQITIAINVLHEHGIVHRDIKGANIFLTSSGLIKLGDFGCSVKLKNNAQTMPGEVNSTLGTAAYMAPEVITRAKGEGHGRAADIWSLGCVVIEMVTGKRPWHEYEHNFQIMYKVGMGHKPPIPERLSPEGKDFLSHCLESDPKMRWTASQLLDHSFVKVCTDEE

[24] = target: CaMK2g (Homo sapiens, UniProt Q13555); experiment: KiNativ, OCI cells live cell; type: cell-based; conditions: 2 h, labeling site Lys1, peptide […]
Chain of CaMK2g (Q13555 whole entry): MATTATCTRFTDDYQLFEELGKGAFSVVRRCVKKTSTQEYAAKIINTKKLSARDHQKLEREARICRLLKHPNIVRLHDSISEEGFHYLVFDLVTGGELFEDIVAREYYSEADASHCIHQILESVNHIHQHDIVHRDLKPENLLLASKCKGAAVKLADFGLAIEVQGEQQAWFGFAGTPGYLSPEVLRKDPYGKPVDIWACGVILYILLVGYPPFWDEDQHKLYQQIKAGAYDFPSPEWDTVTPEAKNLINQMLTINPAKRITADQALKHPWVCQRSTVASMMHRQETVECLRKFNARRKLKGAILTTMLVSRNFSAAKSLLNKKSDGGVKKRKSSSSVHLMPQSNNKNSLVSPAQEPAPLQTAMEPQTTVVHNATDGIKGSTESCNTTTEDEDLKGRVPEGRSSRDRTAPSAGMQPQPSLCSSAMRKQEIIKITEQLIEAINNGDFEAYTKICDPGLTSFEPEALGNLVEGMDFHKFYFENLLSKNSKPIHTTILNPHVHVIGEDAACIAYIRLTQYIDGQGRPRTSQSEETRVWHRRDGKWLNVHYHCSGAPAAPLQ

[25] = target: PCTAIRE1 (Homo sapiens, UniProt Q00536); experiment: KiNativ, OCI cells live cell; type: cell-based; conditions: 2 h, labeling site Lys1, peptide […]

In the case of `CN1CCN(Cc2ccc(Nc3ncc(Cl)c(Nc4ccccc4S(=O)(=O)N(C)C)n3)cc2)CC1` [TP-0903], the Inhibition [1] is given as 29.7%, the Inhibition of kinases [2] is given as > 50% and the inhibition at 0.1 µM ([3]; labeling site Activation Loop, peptide MCDFGISGYLVDSVAKTMDAGCKPYMAPER) is given as 6.8%. It also gave an inhibition at 0.1 µM ([3]; labeling site Lys1, peptide HAQSGTIMAVKR) of 8%, an inhibition at 0.1 µM ([3]; labeling site Lys2, peptide DVKPSNVLINK) of 8.2% and an Inhibition [4] of 14.4%. It also gave an inhibition at 0.1 µM [5] of 86.1%, an Inhibition [6] of 89.6% and an inhibition at 0.1 µM [7] of -38.8%. For the same molecule, the inhibition at 0.1 µM ([8]; labeling site Lys1, peptide LVAIKCIAK) was -6.6%, the inhibition at 0.1 µM ([8]; labeling site Lys2, peptide DLKPENLLYYSLDEDSK) was -19.1% and the Inhibition [9] was -5.0%. The pKd [10] was > 8.30, the inhibition at 0.1 µM [11] was -23% and the Inhibition [12] was -17.4%. It also gave an Inhibition [13] of -6.6%, an inhibition at 0.1 µM [14] of 12.4% and an inhibition at 0.1 µM [15] of 14.7%. The inhibition at 0.1 µM [16] was -4.4%, the “Concentration inhibiting colony formation of CD34+ cells” value [17] was 200 nM and the inhibition at 0.1 µM ([18]; peptide EHPFLVKGGEDLR) was 2.8%. The inhibition at 0.1 µM ([18]; peptide KGGSWIQEINVAEK) was 8.4%, the inhibition at 0.1 µM [19] was -50% and the inhibition at 0.1 µM [20] was 25%. It also gave an inhibition at 0.1 µM [21] of 31.2%, an inhibition at 0.1 µM [22] of -0.112% and an inhibition at 0.1 µM ([23]; labeling site Lys1, peptide VYTCISVDTGELMAMKEIR) of 2.7%. The inhibition at 0.1 µM ([23]; labeling site Lys2, peptide DIKGANIFLTSSGLIK) was 24.7%, the inhibition at 0.1 µM [24] was 31.6% and the inhibition at 0.1 µM [25] was 94.6%.
